According to patent US20260070886A1, “QUINOLINE PIPERAZINE DERIVATIVES, PHARMACEUTICAL COMPOSITION AND USES THEREOF” (priority 2022, published 2026):

How the values were obtained:
Assay type in all cases: cell-based
NCI-H-460 cells = test: Cell cytotoxicity assay, NCI-H-460 cells; conditions: Homo sapiens, NCI-H460, 72 hours, percent cytotoxicity against DMSO control; for cytotoxicity at 1 µM: 1 μM compound, read-out: Cell toxicity NCI-H-460 cells 1 μM; for cytotoxicity at 10 µM: 10 μM compound, read-out: Cell toxicity NCI-H-460 cells 10 μM
Excerpt: (§1) The following human derived non-small cell lung cancer cell lines were used to test the efficiency of the compounds to cause cell death and assess the anti-cancer properties of said compounds: 1. A549 cells: adenocarcinomic human alveolar basal epithelial cells; these cells are used as models for the study of lung cancer and the development of drug therapies against it • 2. NCI-H-460 cells are also human lung cancer cells, and • 3. NCI-H-522 cells are also human lung cancer cells.
(§2) 500 cells/well/30 μL were seeded in a 384 well cell culture plate. Incubated over night at 37° C., 5% CO2 in cell culture incubator. 10 μL of 4× compound was added to the plates, and incubated for 72 hours at 37° C., 5% CO2 in cell culture incubator. Assay DMSO control were included for 0% cytotoxicity control. Assay was terminated by addition of 10 μL of the reagent CTG 2.0 detection reagent #G9242. Plates were incubated for 20 minute incubation at room temperature with shaking Plate were read in Envision. Ultrasensitive luminescence and data was analyzed and percent cytotoxicity of compounds was determined against DMSO control.
(§3) All the compounds, A1-A116, were tested for cell toxicity using said non-small cell lung cancer cell lines using the above described method.

[1] = test system: Non-small cell lung cancer cell lines; test: Cell toxicity assay, overall statement; conditions: summary in words of Table 6
Excerpt: as §1, §2, §3
These selected derivatives of Formula A were further tested to confirm their efficiency as anti-cancer compounds.

NCI-H-522 cells = test: Cell cytotoxicity assay, NCI-H-522 cells; conditions: Homo sapiens, NCI-H522, 72 hours, percent cytotoxicity against DMSO control; for cytotoxicity at 1 µM: 1 μM compound, read-out: Cell toxicity NCI-H-522 cells 1 μM; for cytotoxicity at 10 µM: 10 μM compound, read-out: Cell toxicity NCI-H-522 cells 10 μM
Excerpt: as §1, §2, §3

A549 cells = test: Cell cytotoxicity assay, A549 cells; conditions: Homo sapiens, 72 hours, percent cytotoxicity against DMSO control; for cytotoxicity at 1 µM: 1 μM compound, read-out: Cell toxicity A549 cells 1 μM; for cytotoxicity at 10 µM: 10 μM compound, read-out: Cell toxicity A549 cells 10 μM
Excerpt: as §1, §2, §3

Compound | cytotoxicity at 1 µM (NCI-H-460 cells) [%] | cytotoxicity at 10 µM (NCI-H-460 cells) [%] | activity against Non-small cell lung cancer (cell toxicity) [1] | cytotoxicity at 1 µM (NCI-H-522 cells) [%] | cytotoxicity at 10 µM (NCI-H-522 cells) [%] | cytotoxicity at 1 µM (A549 cells) [%] | cytotoxicity at 10 µM (A549 cells) [%]
Fc1cccc(F)c1Nc1nc(N2CCN(c3ccnc4cc(Cl)ccc34)CC2)cc(C(F)(F)F)n1 [Compound A33, 4-(4-(7-chloroquinolin-4-yl)piperazin-1-yl)-N-(2,6-difluorophenyl)-6-(trifluoromethyl)pyrimidin-2-amine] | -9 | 3 | active | 2 | 17 | 8 | -8
FC(F)(F)c1cc(N2CCN(c3ccnc4cc(Cl)ccc34)CC2)nc(Nc2ccncc2)n1 [Compound A36, 4-(4-(7-chloroquinolin-4-yl)piperazin-1-yl)-N-(pyridin-4-yl)-6-(trifluoromethyl)pyrimidin-2-amine] | -11 | 98 | active | 2 | 72 | 0 | 99
Cc1cc(N2CCN(c3ccnc4cc(Cl)ccc34)CC2)nc(Nc2ccccc2)n1 [Compound A39, 4-(4-(7-chloroquinolin-4-yl)piperazin-1-yl)-6-methyl-N-phenylpyrimidin-2-amine] | -11 | -4 | active | 1 | 15 | 4 | 18
FC(F)(F)c1cc(N2CCN(c3ccnc4cc(Cl)ccc34)CC2)nc(Nc2ccccc2)n1 [Compound A40, 4-(4-(7-chloroquinolin-4-yl)piperazin-1-yl)-N-phenyl-6-(trifluoromethyl)pyrimidin-2-amine] | -12 | -7 | active | 6 | 11 | 15 | 8
COc1cc(Nc2nccc(N3CCN(c4ccnc5cc(Cl)ccc45)CC3)n2)cc(OC)c1 [Compound A41, 4-(4-(7-chloroquinolin-4-yl)piperazin-1-yl)-N-(3,5-dimethoxyphenyl)pyrimidin-2-amine] | 2 | 28 | active | 7 | 56 | 23 | 42
COc1cc(Nc2nc(C)cc(N3CCN(c4ccnc5cc(C(F)(F)F)ccc45)CC3)n2)cc(OC)c1 [Compound A44, N-(3,5-dimethoxyphenyl)-4-methyl-6-(4-(7-(trifluoromethyl)quinolin-4-yl)piperazin-1-yl)pyrimidin-2-amine] | 0 | 7 | active | 8 | 26 | 26 | 18
COc1cc(Nc2nc(N3CCN(c4ccnc5cc(C(F)(F)F)ccc45)CC3)cc(C(F)(F)F)n2)cc(OC)c1 [Compound A45, N-(3,5-dimethoxyphenyl)-4-(trifluoromethyl)-6-(4-(7-(trifluoromethyl)quinolin-4-yl)piperazin-1-yl)pyrimidin-2-amine] | 0 | 12 | active | 7 | 55 | 8 | 83
COc1cc(Nc2nc(C)cc(N3CCN(c4ncnc5ccccc45)CC3)n2)cc(OC)c1 [Compound A46, N-(3,5-dimethoxyphenyl)-4-methyl-6-(4-(quinazolin-4-yl)piperazin-1-yl)pyrimidin-2-amine] | -2 | 44 | active | 2 | 66 | 25 | 98
